Source: PMC8222254, “Self-assembly of an anion receptor with metal-dependent kinase inhibition and potent in vitro anti-cancer properties” (Nature Communications, 2021)
“And” between values parts separate entries of the source, which are not always exact repeats. Equal entries are not always repeated.

Experiments:
Assay in all cases: Kinase inhibition screen, cell-free 33P ATP assay at 10 μM
Type in all cases: biochemical
[1] = target: T1, 140 purified human kinases (Homo sapiens, UniProt O75385)
T1 sequence (O75385 1-1050): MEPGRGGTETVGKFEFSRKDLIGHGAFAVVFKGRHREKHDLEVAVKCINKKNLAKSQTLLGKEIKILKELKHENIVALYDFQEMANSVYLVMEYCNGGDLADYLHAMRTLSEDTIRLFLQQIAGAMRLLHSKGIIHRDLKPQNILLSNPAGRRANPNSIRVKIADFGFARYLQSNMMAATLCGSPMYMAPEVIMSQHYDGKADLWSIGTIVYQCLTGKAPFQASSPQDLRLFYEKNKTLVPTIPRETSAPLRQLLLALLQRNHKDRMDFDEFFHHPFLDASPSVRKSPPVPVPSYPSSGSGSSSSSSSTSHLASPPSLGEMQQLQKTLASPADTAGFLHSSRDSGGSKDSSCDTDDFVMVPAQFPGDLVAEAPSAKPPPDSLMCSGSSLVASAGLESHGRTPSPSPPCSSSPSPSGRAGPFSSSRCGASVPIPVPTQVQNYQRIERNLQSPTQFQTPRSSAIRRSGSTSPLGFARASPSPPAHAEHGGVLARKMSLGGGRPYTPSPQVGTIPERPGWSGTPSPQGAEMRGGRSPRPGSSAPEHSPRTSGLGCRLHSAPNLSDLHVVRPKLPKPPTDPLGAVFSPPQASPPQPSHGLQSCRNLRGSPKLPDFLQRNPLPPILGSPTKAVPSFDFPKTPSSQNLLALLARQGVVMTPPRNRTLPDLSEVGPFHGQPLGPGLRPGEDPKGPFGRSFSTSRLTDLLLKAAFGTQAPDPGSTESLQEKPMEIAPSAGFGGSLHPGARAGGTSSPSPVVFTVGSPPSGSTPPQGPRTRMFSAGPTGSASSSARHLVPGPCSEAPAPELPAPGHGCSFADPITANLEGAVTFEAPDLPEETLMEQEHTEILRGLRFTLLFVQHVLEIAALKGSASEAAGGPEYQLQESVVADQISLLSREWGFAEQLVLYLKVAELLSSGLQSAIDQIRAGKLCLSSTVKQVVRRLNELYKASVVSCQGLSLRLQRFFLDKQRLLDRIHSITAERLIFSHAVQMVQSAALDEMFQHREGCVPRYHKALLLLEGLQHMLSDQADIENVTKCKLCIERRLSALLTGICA
Outline: (§1)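 Radiometric ^33P ATP cell-free format with purified enzymes; both complexes run at 10 μM in duplicate, results plotted on a kinome map via HGNC symbols.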

[2] = target: 140 purified human kinases (Homo sapiens, UniProt P14616); conditions: IRR
Outline: as §1

[3] = target: T2, 140 purified human kinases (Homo sapiens, UniProt P53778); conditions: p38g MAPK
T2 sequence (P53778 1-367): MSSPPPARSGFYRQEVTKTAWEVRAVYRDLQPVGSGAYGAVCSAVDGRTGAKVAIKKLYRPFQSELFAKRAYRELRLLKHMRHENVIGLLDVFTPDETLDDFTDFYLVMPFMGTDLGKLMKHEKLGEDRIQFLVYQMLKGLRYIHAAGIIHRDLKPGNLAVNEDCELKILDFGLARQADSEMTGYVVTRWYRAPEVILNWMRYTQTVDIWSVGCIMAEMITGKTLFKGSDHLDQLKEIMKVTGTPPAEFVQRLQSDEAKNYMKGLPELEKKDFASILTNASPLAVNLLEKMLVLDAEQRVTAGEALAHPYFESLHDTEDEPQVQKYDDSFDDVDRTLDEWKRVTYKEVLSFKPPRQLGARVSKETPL
Outline: as §1

[4] = target: 140 purified human kinases (Homo sapiens, UniProt P78368)
Outline: as §1

[5] = target: T3, 140 purified human kinases (Homo sapiens, UniProt Q05513); conditions: PKCz; for % Activity inhibition Mean / % Activity inhibition Run 1 / % Activity inhibition Run 2 / % Activity remaining Run 1 / % Activity remaining Run 2: 10 µM
T3 sequence (Q05513 1-592): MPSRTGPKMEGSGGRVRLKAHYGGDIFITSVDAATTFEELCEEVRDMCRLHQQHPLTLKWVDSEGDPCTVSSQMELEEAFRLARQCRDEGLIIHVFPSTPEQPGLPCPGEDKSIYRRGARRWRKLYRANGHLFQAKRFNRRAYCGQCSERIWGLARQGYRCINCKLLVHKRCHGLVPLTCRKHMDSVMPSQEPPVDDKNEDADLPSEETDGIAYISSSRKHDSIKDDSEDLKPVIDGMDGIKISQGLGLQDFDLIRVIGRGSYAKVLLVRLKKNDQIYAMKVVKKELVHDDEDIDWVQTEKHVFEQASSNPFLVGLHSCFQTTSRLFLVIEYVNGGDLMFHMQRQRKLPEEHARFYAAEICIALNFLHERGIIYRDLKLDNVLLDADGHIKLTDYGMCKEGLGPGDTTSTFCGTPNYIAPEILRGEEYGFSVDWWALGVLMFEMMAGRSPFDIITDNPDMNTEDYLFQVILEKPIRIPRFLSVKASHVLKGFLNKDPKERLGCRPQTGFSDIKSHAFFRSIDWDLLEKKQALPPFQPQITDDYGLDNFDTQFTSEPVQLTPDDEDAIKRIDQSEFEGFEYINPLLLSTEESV
Outline: as §1

[6] = target: 140 purified human kinases (Homo sapiens, UniProt Q9Y2K2)
Outline: as §1

Chain of 140 purified human kinases (Homo sapiens, UniProt P14616) (P14616 27-1297): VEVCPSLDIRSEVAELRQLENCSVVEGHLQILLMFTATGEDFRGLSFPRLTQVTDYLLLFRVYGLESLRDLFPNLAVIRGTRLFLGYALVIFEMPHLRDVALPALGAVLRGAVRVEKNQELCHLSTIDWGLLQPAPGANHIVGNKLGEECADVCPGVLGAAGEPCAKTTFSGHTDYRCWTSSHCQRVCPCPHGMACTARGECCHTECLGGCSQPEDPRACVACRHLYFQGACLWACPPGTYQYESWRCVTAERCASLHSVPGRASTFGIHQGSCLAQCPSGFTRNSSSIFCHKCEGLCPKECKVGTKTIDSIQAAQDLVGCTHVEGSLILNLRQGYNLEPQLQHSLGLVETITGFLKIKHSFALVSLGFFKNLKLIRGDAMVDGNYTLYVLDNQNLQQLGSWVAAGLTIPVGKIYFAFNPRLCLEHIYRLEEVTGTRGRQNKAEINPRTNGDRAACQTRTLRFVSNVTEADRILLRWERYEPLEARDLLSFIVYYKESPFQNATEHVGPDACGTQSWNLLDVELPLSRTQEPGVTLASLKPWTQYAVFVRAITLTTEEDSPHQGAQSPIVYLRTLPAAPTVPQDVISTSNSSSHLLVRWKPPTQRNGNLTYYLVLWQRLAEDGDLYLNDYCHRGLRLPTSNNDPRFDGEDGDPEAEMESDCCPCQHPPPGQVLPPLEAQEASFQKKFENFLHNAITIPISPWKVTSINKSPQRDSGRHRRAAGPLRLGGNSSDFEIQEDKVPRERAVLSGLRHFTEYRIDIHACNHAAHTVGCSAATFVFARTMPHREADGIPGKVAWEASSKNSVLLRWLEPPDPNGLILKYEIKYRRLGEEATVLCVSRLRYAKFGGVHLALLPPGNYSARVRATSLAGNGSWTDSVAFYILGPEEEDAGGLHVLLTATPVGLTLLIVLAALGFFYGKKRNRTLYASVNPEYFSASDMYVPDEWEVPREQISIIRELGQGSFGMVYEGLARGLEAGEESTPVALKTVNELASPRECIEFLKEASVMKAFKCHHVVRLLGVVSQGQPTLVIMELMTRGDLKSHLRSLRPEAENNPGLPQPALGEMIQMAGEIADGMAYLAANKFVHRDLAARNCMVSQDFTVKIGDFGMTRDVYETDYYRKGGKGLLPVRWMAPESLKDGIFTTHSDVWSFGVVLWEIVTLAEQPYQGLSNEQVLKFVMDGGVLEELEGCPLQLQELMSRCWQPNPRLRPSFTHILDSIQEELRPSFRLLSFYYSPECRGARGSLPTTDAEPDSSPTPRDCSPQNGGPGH
Chain of 140 purified human kinases (Homo sapiens, UniProt Q9Y2K2) (Q9Y2K2 whole entry): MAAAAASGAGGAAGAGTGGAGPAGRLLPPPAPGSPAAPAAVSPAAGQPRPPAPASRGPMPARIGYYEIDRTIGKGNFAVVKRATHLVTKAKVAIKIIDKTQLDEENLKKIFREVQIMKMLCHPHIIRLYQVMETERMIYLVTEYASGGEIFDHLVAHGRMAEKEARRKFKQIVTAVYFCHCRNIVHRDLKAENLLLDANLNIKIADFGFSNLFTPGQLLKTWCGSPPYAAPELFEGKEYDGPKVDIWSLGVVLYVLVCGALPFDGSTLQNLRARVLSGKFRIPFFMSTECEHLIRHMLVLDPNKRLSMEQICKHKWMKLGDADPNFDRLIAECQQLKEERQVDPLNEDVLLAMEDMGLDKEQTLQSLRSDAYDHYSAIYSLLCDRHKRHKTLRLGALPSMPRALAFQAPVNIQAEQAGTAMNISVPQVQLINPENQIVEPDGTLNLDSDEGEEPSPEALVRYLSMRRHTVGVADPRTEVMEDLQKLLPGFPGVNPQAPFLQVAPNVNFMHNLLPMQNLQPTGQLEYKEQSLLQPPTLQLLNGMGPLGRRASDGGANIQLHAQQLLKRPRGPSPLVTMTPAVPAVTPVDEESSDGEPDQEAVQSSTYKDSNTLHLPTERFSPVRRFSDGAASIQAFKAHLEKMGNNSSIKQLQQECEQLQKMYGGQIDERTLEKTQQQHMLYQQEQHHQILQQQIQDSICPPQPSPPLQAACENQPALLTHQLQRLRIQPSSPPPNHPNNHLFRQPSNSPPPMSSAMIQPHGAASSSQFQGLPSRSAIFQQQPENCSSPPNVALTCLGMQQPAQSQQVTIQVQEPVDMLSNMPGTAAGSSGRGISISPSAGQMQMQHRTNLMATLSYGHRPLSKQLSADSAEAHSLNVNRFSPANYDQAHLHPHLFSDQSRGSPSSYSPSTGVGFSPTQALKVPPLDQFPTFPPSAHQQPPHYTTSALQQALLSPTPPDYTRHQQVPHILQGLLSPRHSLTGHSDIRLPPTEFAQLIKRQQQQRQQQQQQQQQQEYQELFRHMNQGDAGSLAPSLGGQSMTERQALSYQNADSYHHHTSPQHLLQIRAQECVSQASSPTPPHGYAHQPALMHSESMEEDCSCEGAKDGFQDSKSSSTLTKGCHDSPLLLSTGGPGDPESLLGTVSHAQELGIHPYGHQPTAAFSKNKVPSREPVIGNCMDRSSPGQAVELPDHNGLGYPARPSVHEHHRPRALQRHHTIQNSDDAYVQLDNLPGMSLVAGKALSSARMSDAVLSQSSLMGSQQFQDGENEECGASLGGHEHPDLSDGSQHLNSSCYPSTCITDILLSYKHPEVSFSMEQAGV
Chain of 140 purified human kinases (Homo sapiens, UniProt P78368) (P78368 whole entry): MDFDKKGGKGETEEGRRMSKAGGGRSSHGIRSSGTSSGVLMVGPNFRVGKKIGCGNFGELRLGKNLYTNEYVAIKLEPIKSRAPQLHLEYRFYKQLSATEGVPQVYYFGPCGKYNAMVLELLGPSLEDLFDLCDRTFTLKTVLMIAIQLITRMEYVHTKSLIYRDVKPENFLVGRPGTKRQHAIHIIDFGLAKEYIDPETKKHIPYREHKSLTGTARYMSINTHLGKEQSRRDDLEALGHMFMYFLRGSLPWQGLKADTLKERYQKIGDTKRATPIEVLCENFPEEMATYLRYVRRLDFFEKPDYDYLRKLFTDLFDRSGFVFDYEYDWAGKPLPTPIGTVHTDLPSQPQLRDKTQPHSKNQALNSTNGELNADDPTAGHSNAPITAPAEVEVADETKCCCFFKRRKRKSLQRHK

[Cu+2].[Cu+2].[Cu+2].c1ccc(-c2csc(NCCN(CCNc3nc(-c4ccccn4)cs3)CCNc3nc(-c4ccccn4)cs3)n2)nc1.c1ccc(-c2csc(NCCN(CCNc3nc(-c4ccccn4)cs3)CCNc3nc(-c4ccccn4)cs3)n2)nc1 [[L2Cu3]6+]
% Inhibition Run 1 ([1]; ULK1): 75.8% | % Inhibition Run 2 ([1]; ULK1): 76.3% | % Inhibition, Mean ([1]; ULK1): 76% | mean % activity ([1]; ULK1): 24% | % activity ([1]; ULK1, Run 1): 24.2% | % activity ([1]; ULK1, Run 2): 23.7% | % Inhibition Run 1 [2]: 26.1% | % Inhibition Run 2 [2]: 42.9% | % Inhibition, Mean [2]: 35% | mean % activity [2]: 66% | % activity ([2]; Run 1): 73.9% | % activity ([2]; Run 2): 57.1% | % Activation, Mean value [3]: 3.55% | % Inhibition Run 1 [3]: -1.3% | % Inhibition Run 2 [3]: -5.8% | % Inhibition, Mean [3]: -3.55% | mean % activity [3]: 104% | % activity ([3]; Run 1): 101.3% | % activity ([3]; Run 2): 105.8% | % Inhibition Run 1 ([4]; CK1γ2): 23.7% | % Inhibition Run 2 ([4]; CK1γ2): 10.8% | % Inhibition, Mean ([4]; CK1γ2): 17% | mean % activity ([4]; CK1γ2): 83% | % activity ([4]; CK1γ2, Run 1): 76.3% | % activity ([4]; CK1γ2, Run 2): 89.2% | % Inhibition Run 1 [5]: 92.5% | % Inhibition Run 2 [5]: 95.1% | % Inhibition, Mean [5]: 94% | mean % activity [5]: 6% | % activity ([5]; Run 1): 7.5% | % activity ([5]; Run 2): 4.9% | % Activity inhibition Mean [5]: 93.8% | % Activity inhibition Run 1 [5]: 92.5% | % Activity inhibition Run 2 [5]: 95.1% | % Activity remaining Run 1 [5]: 7.50% | % Activity remaining Run 2 [5]: 4.90% | % Inhibition Run 1 ([6]; SIK3): 48.7% | % Inhibition Run 2 ([6]; SIK3): 52.1% | % Inhibition, Mean ([6]; SIK3): 50% | mean % activity ([6]; SIK3): 50% | % activity ([6]; SIK3, Run 1): 51.3% | % activity ([6]; SIK3, Run 2): 47.9%

CC(=O)[O-].CC(=O)[O-].CC(=O)[O-].CC(=O)[O-].CC(=O)[O-].CC(=O)[O-].[Zn+2].[Zn+2].[Zn+2].c1ccc(-c2csc(NCCN(CCNc3nc(-c4ccccn4)cs3)CCNc3nc(-c4ccccn4)cs3)n2)nc1.c1ccc(-c2csc(NCCN(CCNc3nc(-c4ccccn4)cs3)CCNc3nc(-c4ccccn4)cs3)n2)nc1 [[L2Zn3]6+]
% Inhibition, Mean ([1]; ULK1): 30% | mean % activity ([1]; ULK1): 70% | % activity ([1]; ULK1, duplicate runs): 58% and 82% | % Inhibition, Mean [2]: 6.6% | % Inhibition, Run 1 / Run 2 [2]: 2.4% and 11% | mean % activity [2]: 93% | % activity ([2]; duplicate runs): 98% and 89% | % Activation, Mean value [3]: 5% | % Inhibition, Mean [3]: -5% | % Inhibition, Run 1 / Run 2 [3]: -3.4% and -6.5% | mean % activity [3]: 105% | % activity ([3]; duplicate runs): 103% and 107% | % Inhibition, Mean ([4]; CK1γ2): 12% | mean % activity ([4]; CK1γ2): 88% | % activity ([4]; CK1γ2, duplicate runs): 82% and 94% | % Inhibition, Mean [5]: 88% | % Inhibition, Run 1 / Run 2 [5]: 89% and 87% | mean % activity [5]: 12% | % Activity inhibition Mean [5]: 88.0% | % Activity inhibition Run 1 [5]: 89% | % Activity inhibition Run 2 [5]: 87% | % Activity remaining Run 1 [5]: 11% | % Activity remaining Run 2 [5]: 13% | % activity ([5]; duplicate runs): 11% and 13% | % Inhibition, Mean ([6]; SIK3): 39% | % Inhibition, Run 1 / Run 2 ([6]; SIK3): 45% and 33% | mean % activity ([6]; SIK3): 61% | % activity ([6]; SIK3, duplicate runs): 55% and 67%
